From patent US12594267B2, “Capsid inhibitors for the treatment of HIV” (Gilead Sciences, Inc., priority 2018, dated 2026)
Like-named read-outs stand apart in the source and are kept apart here.

Experiments:
WT HXB2D = assay: Cytopathic antiviral assay in MT-2 cells, wild type HXB2D; assay type: cell-based, HIV-1; details: Human immunodeficiency virus 1, MT2, read-out: WT HXB2D EC50, MT-2 cells, mean ± s.d. of three experiments in triplicate
Procedure: (§1) The antiviral activity of the compound of Formula (a) was tested against a panel of known HIV-1 mutants resistant to HIV PIs (ATV and DRV), NRTIs (TFV and FTC), NNRTIs (RPV and EFV) or INSTIs (RAL, EVG and DTG) using a cytopathic antiviral assay in MT-2 cells. The compound of Formula (Ia) was fully active against all tested mutants resistant to PIs (Table 11), NRTIs (Table 12), NNRTIs (Table 13) or INSTIs (Table 14).

PI-resistant viruses = assay: Cytopathic antiviral assay in MT-2 cells, PI-resistant viruses; assay type: cell-based, HIV-1; details: Mutant/WT (HXB2D) EC50 ratio, mean ± s.d. of three experiments
Procedure: as §1

HIV-1 clinical isolates = assay: Antiviral activity against HIV-1 clinical isolates in PHA-stimulated human PBMCs; assay type: cell-based
Procedure: (§2) The antiretroviral activity of the compound of Formula (Ia) was tested against a panel of 22 HIV-1 clinical isolates of HIV-1 and two HIV-2 isolates in freshly isolated, PHA-stimulated human peripheral blood mononuclear cells (PBMCs). The HIV-1 isolates included representative strains from subtypes A, B, C, D, E, F, G, N, O, AE, and AG. Following a 7-day infection, virus production was determined by measuring reverse transcriptase activity in cell-free culture supernatants.

HIV-2 isolates = assay: Antiviral activity against HIV-2 isolates in PHA-stimulated human PBMCs; assay type: cell-based; details: Human immunodeficiency virus 2, PBMC, 168 h, 7-day infection, RT activity readout, mean of triplicate
Procedure: as §2

INSTI-resistant viruses = assay: Cytopathic antiviral assay in MT-2 cells, INSTI-resistant viruses; assay type: cell-based, HIV-1; details: Mutant/WT (HXB2D) EC50 ratio, mean ± s.d. of three experiments
Procedure: as §1

[1] = Human immunodeficiency virus 1, BAL, PBMC, 168 h, read-out: EC50 in human PBMCs, HIV-1 subtype B isolate Ba-L, 7-day infection, RT activity readout, mean of triplicate
[2] = Human immunodeficiency virus 1, PBMC, 168 h, read-out: EC50 in human PBMCs, HIV-1 CRF01_AE isolate 90TH_CM235, 7-day infection, RT activity readout, mean of triplicate
[3] = Human immunodeficiency virus 1, PBMC, 168 h, read-out: EC50 in human PBMCs, HIV-1 CRF02_AG isolate 01CM0008BBY, 7-day infection, RT activity readout, mean of triplicate
[4] = Human immunodeficiency virus 1, PBMC, 168 h, read-out: EC50 in human PBMCs, HIV-1 CRF02_AG isolate 91DJ263, 7-day infection, RT activity readout, mean of triplicate
[5] = Human immunodeficiency virus 1, PBMC, 168 h, read-out: EC50 in human PBMCs, HIV-1 Group N isolate YBF30, 7-day infection, RT activity readout, mean of triplicate
[6] = Human immunodeficiency virus 1, PBMC, 168 h, read-out: EC50 in human PBMCs, HIV-1 Group O isolate BCF01, 7-day infection, RT activity readout, mean of triplicate
[7] = Human immunodeficiency virus 1, PBMC, 168 h, read-out: EC50 in human PBMCs, HIV-1 subtype A isolate 92UG031, 7-day infection, RT activity readout, mean of triplicate
[8] = Human immunodeficiency virus 1, PBMC, 168 h, read-out: EC50 in human PBMCs, HIV-1 subtype A isolate 92UG037, 7-day infection, RT activity readout, mean of triplicate
[9] = Human immunodeficiency virus 1, PBMC, 168 h, read-out: EC50 in human PBMCs, HIV-1 subtype B isolate 89BZ_167, 7-day infection, RT activity readout, mean of triplicate
[10] = Human immunodeficiency virus 1, PBMC, 168 h, read-out: EC50 in human PBMCs, HIV-1 subtype B isolate 90US_873, 7-day infection, RT activity readout, mean of triplicate
[11] = Human immunodeficiency virus 1, PBMC, 168 h, read-out: EC50 in human PBMCs, HIV-1 subtype B isolate 91US001, 7-day infection, RT activity readout, mean of triplicate
[12] = Human immunodeficiency virus 1, PBMC, 168 h, read-out: EC50 in human PBMCs, HIV-1 subtype B isolate 91US004, 7-day infection, RT activity readout, mean of triplicate
[13] = Human immunodeficiency virus 1, PBMC, 168 h, read-out: EC50 in human PBMCs, HIV-1 subtype B isolate 96TH_NP1538, 7-day infection, RT activity readout, mean of triplicate
[14] = Human immunodeficiency virus 1, PBMC, 168 h, read-out: EC50 in human PBMCs, HIV-1 subtype B isolate JR-CSF, 7-day infection, RT activity readout, mean of triplicate
[15] = Human immunodeficiency virus 1, PBMC, 168 h, read-out: EC50 in human PBMCs, HIV-1 subtype C isolate 92BR025, 7-day infection, RT activity readout, mean of triplicate
[16] = Human immunodeficiency virus 1, PBMC, 168 h, read-out: EC50 in human PBMCs, HIV-1 subtype C isolate 98US_MSC5016, 7-day infection, RT activity readout, mean of triplicate
[17] = Human immunodeficiency virus 1, PBMC, 168 h, read-out: EC50 in human PBMCs, HIV-1 subtype D isolate 92UG001, 7-day infection, RT activity readout, mean of triplicate
[18] = Human immunodeficiency virus 1, PBMC, 168 h, read-out: EC50 in human PBMCs, HIV-1 subtype D isolate 98UG_57128, 7-day infection, RT activity readout, mean of triplicate
[19] = Human immunodeficiency virus 1, PBMC, 168 h, read-out: EC50 in human PBMCs, HIV-1 subtype E isolate CMU02, 7-day infection, RT activity readout, mean of triplicate
[20] = Human immunodeficiency virus 1, PBMC, 168 h, read-out: EC50 in human PBMCs, HIV-1 subtype E isolate CMU08, 7-day infection, RT activity readout, mean of triplicate
[21] = Human immunodeficiency virus 1, PBMC, 168 h, read-out: EC50 in human PBMCs, HIV-1 subtype F isolate 93BR020, 7-day infection, RT activity readout, mean of triplicate
[22] = Human immunodeficiency virus 1, PBMC, 168 h, read-out: EC50 in human PBMCs, HIV-1 subtype G isolate JV1083, 7-day infection, RT activity readout, mean of triplicate
[23] = Human immunodeficiency virus 1, PBMC, read-out: HIV-1 EC50 Mean ± s.d., mean over the 22 HIV-1 clinical isolates, human PBMCs
[24] = Human immunodeficiency virus 1, PBMC, read-out: HIV-1 EC50 Median, median over the 22 HIV-1 clinical isolates, human PBMCs
[25] = Human immunodeficiency virus 1, PBMC, read-out: HIV-1 EC50 Range, range over the 22 HIV-1 clinical isolates, human PBMCs
[26] = INSTI-resistance panel (Table 14)

SMILES	EC50 (HIV-1 clinical isolates; [1]) [nM]	EC50 (HIV-1 clinical isolates; [2]) [nM]	EC50 (HIV-1 clinical isolates; [3]) [nM]	EC50 (HIV-1 clinical isolates; [4]) [nM]	EC50 (HIV-1 clinical isolates; [5]) [nM]	EC50 (HIV-1 clinical isolates; [6]) [nM]	EC50 (HIV-1 clinical isolates; [7]) [nM]	EC50 (HIV-1 clinical isolates; [8]) [nM]	EC50 (HIV-1 clinical isolates; [9]) [nM]	EC50 (HIV-1 clinical isolates; [10]) [nM]	EC50 (HIV-1 clinical isolates; [11]) [nM]	EC50 (HIV-1 clinical isolates; [12]) [nM]	EC50 (HIV-1 clinical isolates; [13]) [nM]	EC50 (HIV-1 clinical isolates; [14]) [nM]	EC50 (HIV-1 clinical isolates; [15]) [nM]	EC50 (HIV-1 clinical isolates; [16]) [nM]	EC50 (HIV-1 clinical isolates; [17]) [nM]	EC50 (HIV-1 clinical isolates; [18]) [nM]	EC50 (HIV-1 clinical isolates; [19]) [nM]	EC50 (HIV-1 clinical isolates; [20]) [nM]	other results
CC(C)CN(C[C@@H](O)[C@H](Cc1ccccc1)NC(=O)O[C@H]1CO[C@H]2OCC[C@H]21)S(=O)(=O)c1ccc(N)cc1 [DRV, darunavir]																					EC50 (WT HXB2D; PI-resistance panel (Table 11)): 2.82 ± 0.47 nM; EC50 Fold-Change (PI-resistant viruses; G48V/V82A/L90M): 0.5 ± 0.2; EC50 Fold-Change (PI-resistant viruses; G48V/V82S): 0.3 ± 0.1; EC50 Fold-Change (PI-resistant viruses; I50V): 31.6 ± 22.8; EC50 Fold-Change (PI-resistant viruses; I84V/L90M): 1.9 ± 0.9
C[C@@H]1CCO[C@H]2Cn3cc(C(=O)NCc4ccc(F)cc4F)c(=O)c(O)c3C(=O)N12 [DTG, dolutegravir]	0.4	1.02	1.04	0.45	0.54	0.64	0.63	0.47	1.18	0.82	0.53	0.4	0.4	0.41	0.91	0.77	1.09	0.7	0.81	0.96	EC50 (HIV-1 clinical isolates; [21]): 0.38 nM; EC50 (HIV-1 clinical isolates; [22]): 0.93 nM; EC50 (HIV-1 clinical isolates; [23]): 0.7 ± 0.26 nM; EC50 (HIV-1 clinical isolates; [24]): 0.67 nM; EC50 (HIV-1 clinical isolates; [25]): 0.38 to 1.18 nM; EC50 (HIV-2 isolates; HIV-2 isolate CBL-20): 0.36 nM; EC50 (HIV-2 isolates; HIV-2 isolate CDC310319): 1.81 nM; EC50 (WT HXB2D; [26]): 2.24 ± 0.46 nM; EC50 Fold-Change (INSTI-resistant viruses; E92Q/N155H): 3.0 ± 1.1; EC50 Fold-Change (INSTI-resistant viruses; E138K/Q148K): 7.3 ± 4.1; EC50 Fold-Change (INSTI-resistant viruses; G140S/Q148R): 6.9 ± 3.1; EC50 Fold-Change (INSTI-resistant viruses; N155H/Q148R): 1.5 ± 0.6; EC50 Fold-Change (INSTI-resistant viruses; R263K/M50I): 2.8 ± 2.1; EC50 Fold-Change (INSTI-resistant viruses; Y143R): 0.8 ± 0.3
Cc1nnc(C(=O)NC(C)(C)c2nc(C(=O)NCc3ccc(F)cc3)c(O)c(=O)n2C)o1 [RAL, raltegravir]																					EC50 (WT HXB2D; [26]): 6.41 ± 2.15 nM; EC50 Fold-Change (INSTI-resistant viruses; E92Q/N155H): >15.6; EC50 Fold-Change (INSTI-resistant viruses; E138K/Q148K): >15.6; EC50 Fold-Change (INSTI-resistant viruses; G140S/Q148R): >15.6; EC50 Fold-Change (INSTI-resistant viruses; N155H/Q148R): 13.9 ± 2.2; EC50 Fold-Change (INSTI-resistant viruses; R263K/M50I): 1.6 ± 1.2; EC50 Fold-Change (INSTI-resistant viruses; Y143R): 10.1 ± 1.2
Cc1cn([C@H]2C[C@H](N=[N+]=[N-])[C@@H](CO)O2)c(=O)[nH]c1=O [AZT, zidovudine]	43.2	10.7	8.21	34.9	8.96	10.5	51.6	21.7	10.1	13.2	20.3	19.7	4.1	4.53	16.9	37.8	7.29	6.61	8.13	34.1	EC50 (HIV-1 clinical isolates; [21]): 25.1 nM; EC50 (HIV-1 clinical isolates; [22]): 20.5 nM; EC50 (HIV-1 clinical isolates; [23]): 19 ± 13.5 nM; EC50 (HIV-1 clinical isolates; [24]): 15.1 nM; EC50 (HIV-1 clinical isolates; [25]): 4.1 to 51.6 nM; EC50 (HIV-2 isolates; HIV-2 isolate CBL-20): 14.3 nM; EC50 (HIV-2 isolates; HIV-2 isolate CDC310319): 28.8 nM
